In brackets after ≈: the same amount, converted by molar mass. Where two headings read alike, the source gives them in different places. Marks after values point to notes of the source that are not given here. Starred links: 1 amine or outer side, 2 acyl side, 3 side chain; linkers in the order of their positions; H or OH if unused. Non-standard residues stand in square brackets, D forms with d. Residues, ends and D or L forms follow the SMILES beside them. Groups on a side chain read outwards from the residue. *: point of attachment. C20 diacid = O=C(O)CCCCCCCCCCCCCCCCCCC(=O)*; γGlu = O=C(O)[C@H](CCC(=O)[*:2])N[*:1]; AEEA = NCCOCCOCC(=O)O; Aib = CC(C)(N)C(=O)O
Legend:
hGcg-R = hGcg-R (Homo sapiens, UniProt P47871); experiment: hGcg-R Binding Assay (SPA radioligand competition, 293HEK membranes); details: read-out: Ki, nM ± SEM at the hGcg-R
hGcg-R, sequence (P47871 26-477): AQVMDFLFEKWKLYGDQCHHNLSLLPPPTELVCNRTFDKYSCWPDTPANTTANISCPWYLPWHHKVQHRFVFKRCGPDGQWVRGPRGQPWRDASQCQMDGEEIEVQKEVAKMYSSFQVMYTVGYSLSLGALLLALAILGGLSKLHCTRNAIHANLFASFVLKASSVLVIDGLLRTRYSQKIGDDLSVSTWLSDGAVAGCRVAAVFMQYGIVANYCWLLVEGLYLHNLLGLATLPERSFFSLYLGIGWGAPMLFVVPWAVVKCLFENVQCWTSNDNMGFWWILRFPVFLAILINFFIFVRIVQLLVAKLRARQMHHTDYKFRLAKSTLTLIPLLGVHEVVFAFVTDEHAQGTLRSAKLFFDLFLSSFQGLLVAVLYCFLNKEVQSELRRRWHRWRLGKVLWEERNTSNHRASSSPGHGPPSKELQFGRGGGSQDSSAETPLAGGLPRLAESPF

DIO mice (C57BL/6) [1] = experiment: Chronic treatment in DIO mice (body weight, fat, food intake); type: in vivo, mouse
Protocol: The effects on food intake and body weight/fat are evaluated in DIO mice. Five to six months old DIO mice (C57BL/6) from Taconic Biosciences are used in this study. Animals are individually housed in a temperature-controlled (24° C.) facility with a 12 hour light/dark cycle (lights on 6:00), and free access to food and water. The mice are acclimated to the facility for two weeks. The day before the study start, fat mass is measured by nuclear magnetic resonance (NMR) using an Echo Medical System (Houston, Tex.) instrument. The mice are randomized to treatment groups (N=7/group) based on body weight and fat mass so each group had similar starting mean body weight and fat mass. […] SC injections are made on Day 1, 4, 7, 10, and 13. Body weight and food intake are measured right before each injection throughout the study. Percent changes in body weight are calculated as follows: […]
At the completion of the study, total fat mass is measured again by NMR. Statistics are analyzed using ANOVA with Dunnett's comparison by JMP 6. Significance is denoted at p≤0.05 vs. vehicle.

hGLP-1-R [2] = target: T1, hGLP-1-R (Homo sapiens, UniProt P43220); experiment: Functional hGLP-1-R assay (cAMP HTRF, HEK-293 clonal cell line); type: cell-based; set-up: expressed in transfected cells; host or cells: HEK-293 clonal cell line over-expressing the receptor
T1 sequence (P43220 24-463): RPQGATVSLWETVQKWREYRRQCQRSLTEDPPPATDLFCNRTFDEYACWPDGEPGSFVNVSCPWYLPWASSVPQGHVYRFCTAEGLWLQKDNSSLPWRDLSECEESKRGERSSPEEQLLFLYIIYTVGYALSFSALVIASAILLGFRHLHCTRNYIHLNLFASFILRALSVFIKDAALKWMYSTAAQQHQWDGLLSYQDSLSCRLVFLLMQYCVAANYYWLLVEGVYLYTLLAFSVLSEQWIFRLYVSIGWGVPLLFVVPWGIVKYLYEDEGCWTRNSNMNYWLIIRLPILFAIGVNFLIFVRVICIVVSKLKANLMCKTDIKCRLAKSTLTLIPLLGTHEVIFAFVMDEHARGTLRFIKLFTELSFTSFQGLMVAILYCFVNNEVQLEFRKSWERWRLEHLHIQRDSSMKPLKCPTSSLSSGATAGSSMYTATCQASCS
Protocol: (§1) After a 60 minute incubation at room temperature, the resulting increase in intracellular cAMP (adenosine 3′,5′-cyclic monophosphate) is quantitatively determined using the CisBio cAMP Dynamic 2 HTRF Assay Kit (62AM4PEJ). cAMP levels within the cell are detected by adding the cAMP-d2 conjugate in cell lysis buffer (20 μl) followed by the antibody anti-cAMP-Eu^3+-Cryptate, also in cell lysis buffer (20 μl).
(§2) A relative EC50 value and percent top (Emax) are derived by non-linear regression analysis using the percent maximal response vs. the concentration of peptide added, fitted to a four-parameter logistic equation (Genedata Screener®).
(§3) Means for EC50 are expressed as Geometric means±standard error of the mean (SEM) with the number of replicates (n) indicated in parenthesis. Means for Emax are expressed as the arithmetic mean±standard error. ND signifies that agonist activity was not detected.

[3] = Viscosity (Rheosense mVroc Viscometer); type: physicochemical; details: approximately 10 mg/mL peptide in 10 mM Tris + 3 mg/mL m-cresol at pH 8.0; 25° C.; shear rate 1934 s^−1
Protocol: Viscosity of compounds of the present invention is measured in a Rheosense mVroc Viscometer with the following settings:
(a) Syringe size: 500 μL syringe
(b) Flow Rate: 100 μL/min flow rate
(c) Average Temperature: 25° C.
(d) Shear Rate: 1934 s^−1
Dry powder (compound) is weighed out, dissolved in water as a cloudy precipitate, and titrated to approximately pH 8.0 with 1N NaOH. The solution is sonicated and swirled by hand until peptide is in solution. Samples are sterile filtered (0.22 μm PVDF filters). Samples are then analyzed by UV-Vis to assess stock solution concentrations. Solutions are diluted to final concentration using 3× m-cresol in 10 mM Tris pH 8.0 buffer to final concentrations of approximately 10 mg/mL peptide by weight in 10 mM Tris+3 mg/mL m-cresol at pH 8.0. Samples were filtered through 0.22 μm filters immediately prior to viscosity analysis. 25 μL of sample are removed to verify concentration by RP-HPLC before and after analysis.
Water and buffer control samples are measured before and after each sample is analyzed. The instrument is washed with buffer (3×) in between analysis of each sample. The samples are loaded into individual syringes and analyzed. The first measurement is not included in the final calculation to allow for equilibration with the system. Samples are then analyzed in triplicate (n=3).
The viscosity of Compounds 1-4 was measured essentially as described in this assay.

Human Gcg-R = target: T2, Human Gcg-R (Homo sapiens, UniProt P47871); experiment: Functional hGcg-R assay (cAMP HTRF, HEK-293 clonal cell line); type: cell-based
T2 construct: expressed in transfected cells; host or cells: HEK-293 clonal cell line over-expressing the receptor
T2 sequence (P47871 26-477): as the sequence (P47871 26-477) above
Protocol: as §1, §2, §3

[4] = Solubility (RP-HPLC and HPLC-SEC, 1 week at 4° C.); type: physicochemical
Protocol: Solubility of compounds of the present invention is measured in an Agilent 1100 HPLC, an Agilent 1200 HPLC and a Nanodrop 2000. The following HPLC columns are used:
(a) RP-HPLC: Waters Symmetry Shield C18, 3.6 um, 4.6×100 mm
(b) HPLC-SEC: Tosoh Biosciences, TSK2000SWXL […]
All peptide concentrations are made at 10 mg/mL in the following:
(a) 10 mM Tris pH 8.0+3 mg/mL m-cresol
(b) 10 mM Tris pH 8.0+3 mg/mL m-cresol+150 mM NaCl
(c) 10 mM Tris pH 8.0+3 mg/mL m-cresol+0.02% Tween-20
5 mL of 10 mg/mL peptide dissolved in 10 mM Tris at pH 8.0 is concentrated to approximately 20 mg/mL using Amicon-ultra 3 kDa MWCO devices. The solution is filtered using Millivex 0.22 μM filters (PVDF membrane) and the final concentration is measured by the NanoDrop spectrometer. This stock solution is used to formulate to the final conditions stated above using 3× m-cresol, 10× NaCl, and 100× Tween-20 stock solutions. A 10 mg/mL PBS solution is also prepared by dissolving directly at 5 mg/mL and concentrating using Amicon-ultra 3 kDa MWCO devices.
Each solution is placed in a refrigerator at 4° C. for 1 week, with analysis by RP-HPLC to assess concentration and HPLC-SEC to assess HMW species formation. Analyses completed at T-0 week and T-1 week.
The solubility of Compounds 1-4 was measured essentially as described in this assay.

DIO mice (C57BL/6) [5] = experiment: Glycemic control in DIO mice; type: in vivo, mouse; details: for Blood glucose (mg/dL) post-injection, Mean: male DIO mice, 25 nmol/kg sc once
Protocol: Five to six months old male DIO mice (C57BL/6) from Taconic Biosciences are used in this study. Animals are individually housed in a temperature-controlled (24° C.) facility with a 12 hour light/dark cycle (lights on 6:00), and free access to food and water. After two weeks acclimation to the facility, the mice are randomized to treatment groups (n=7/group) based on their body weight and blood glucose. Mice are injected subcutaneously once with vehicle or compounds (25 nmol/kg). Blood glucose is monitored 2 and 8 hours post-injection and then once a day at 08:00 for 4 days. OGTTs are performed at 44 and 78 hours post the peptide injection. Statistics are analyzed using ANOVA with Dunnett's comparison by JMP 6. Significance is denoted at p≤0.05 vs vehicle.

hGLP-1-R [6] = target: T1, hGLP-1-R; experiment: hGLP-1R Binding Assay (SPA radioligand competition, 293HEK membranes); set-up: expressed in transfected cells; host or cells: 293HEK, stably transfected with plasmid phD, Hygromycin-selected; crude plasma membranes; details: read-out: Ki, nM ± SEM at the hGLP-1-R
[7] = 15 nmol/kg sc every three days for 15 days
[8] = 30 nmol/kg sc every three days for 15 days

- Ki (hGcg-R): 27.4 ± 3.3 nM
- Emax (hGLP-1-R [2]; HEK293): 85.2 ± 6%
- EC50 (hGLP-1-R [2]; cAMP, 60 minute incubation, 0.25% FBS, 0.05% BSA, geometric mean, read-out: Human GLP-1-R EC50, nM ± SEM (n)): 106 ± 18 nM
- 500 μL syringe Viscosity [3]: 1.05 cP or mPa-s
- Emax (Human Gcg-R; HEK293): 116 ± 4%
- EC50 (Human Gcg-R; cAMP, 60 minute incubation, 0.25% FBS, 0.05% BSA, geometric mean, read-out: Human Gcg-R EC50, nM ± SEM, (n)): 68.8 ± 7.2 nM
- solubility at 1 week ([4]; 10 mM Tris pH 8.0 + 3 mg/mL m-cresol + 0.02% Tween-20, Tris pH 8 + 3 mg/mL m-cresol + 0.02% Tween-20): 10000 µg/mL
- solubility at 1 week ([4]; 10 mM Tris pH 8.0 + 3 mg/mL m-cresol + 150 mM NaCl, Tris pH 8 + 3 mg/mL m-cresol + 150 mm NaCl): 10000 µg/mL
- solubility at 1 week ([4]; 10 mM Tris pH 8.0 + 3 mg/mL m-cresol, Tris pH 8 + 3 mg/mL m-cresol): 10000 µg/mL
- solubility at 1 week ([4]; PBS pH 7.4, pH 7.4, read-out: solubility in PBS, pH 7.4): 10000 µg/mL (≈ 2150 µM)
- Ki (hGLP-1-R [6]): 20.2 ± 8.2 nM
SMILES: CC(C)C[C@H](NC(=O)[C@H](CC(C)C)NC(=O)[C@H](Cc1c[nH]c2ccccc12)NC(=O)[C@H](CCC(=O)O)NC(=O)[C@@H](NC(=O)[C@H](Cc1ccccc1)NC(=O)[C@H](CCC(=O)O)NC(=O)[C@H](CCCCNC(=O)COCCOCCNC(=O)COCCOCCNC(=O)CC[C@H](NC(=O)CC[C@H](NC(=O)CCCCCCCCCCCCCCCCCCC(=O)O)C(=O)O)C(=O)O)NC(=O)[C@H](C)NC(=O)[C@H](CCCCN)NC(=O)[C@H](CCCCN)NC(=O)[C@H](CCC(=O)O)NC(=O)[C@H](CC(=O)O)NC(=O)[C@H](CC(C)C)NC(=O)[C@H](Cc1ccc(O)cc1)NC(=O)[C@H](CCCCN)NC(=O)[C@H](CO)NC(=O)[C@H](Cc1ccc(O)cc1)NC(=O)[C@H](CC(=O)O)NC(=O)[C@H](CO)NC(=O)[C@@H](NC(=O)[C@H](Cc1ccccc1)NC(=O)[C@@H](NC(=O)CNC(=O)[C@H](CCC(N)=O)NC(=O)C(C)(C)NC(=O)[C@@H](N)Cc1c[nH]cn1)[C@@H](C)O)[C@@H](C)O)C(C)C)C(=O)N[C@@H](CO)C(=O)NCC(=O)NCC(=O)N1CCC[C@H]1C(=O)N[C@@H](CO)C(=O)N[C@@H](CO)C(=O)NCC(N)=O [Compound 4] (H-H[Aib]QGTFTSDYSKYLDEKKAK([AEEA-AEEA-γGlu-γGlu-C20 diacid])EFVEWLLSGGPSSG-NH2; N-terminus assumed)
- Body Fat (% change vs. vehicle from Day 1) (DIO mice (C57BL/6) [1]; [7]): −26* %
- Body Weight (% change vs. vehicle from Day 1) (DIO mice (C57BL/6) [1]; [7]): −15* %
- Body Fat (% change vs. vehicle from Day 1) (DIO mice (C57BL/6) [1]; [8]): −69* %
- Body Weight (% change vs. vehicle from Day 1) (DIO mice (C57BL/6) [1]; [8]): −39* %
- HMW species formation by SEC-HPLC ([4]; 1 week at 4° C.): No observed HMW species formation by SEC-HPLC;
- visible precipitation or phase separation ([4]; after 1 week storage at 4° C.): No visible precipitation or phase separation observed after 1 week
- 44 hours Glucose AUC (% of Vehicle) (DIO mice (C57BL/6) [5]; OGTT 44 hours post-injection, 25 nmol/kg sc): 41* % of Vehicle
- 78 hours Glucose AUC (% of Vehicle) (DIO mice (C57BL/6) [5]; OGTT 78 hours post-injection, 25 nmol/kg sc): 60* % of Vehicle
- glucose excursions post an oral glucose challenge (DIO mice (C57BL/6) [5]; OGTTs at 44 and 78 hours post injection, 25 nmol/kg): lower glucose excursions post an oral glucose challenge at both time points
- Blood glucose (mg/dL) post-injection, Mean (DIO mice (C57BL/6) [5]; 2 hours post-injection): 110.2 mg/dL
- Blood glucose (mg/dL) post-injection, Mean (DIO mice (C57BL/6) [5]; 8 hours post-injection): 91.5 mg/dL
- Blood glucose (mg/dL) post-injection, Mean (DIO mice (C57BL/6) [5]; 24 hours post-injection): 87.4 mg/dL
- Blood glucose (mg/dL) post-injection, Mean (DIO mice (C57BL/6) [5]; 48 hours post-injection): 102.9 mg/dL
- Blood glucose (mg/dL) post-injection, Mean (DIO mice (C57BL/6) [5]; 72 hours post-injection): 115.7 mg/dL
- Blood glucose (mg/dL) post-injection, Mean (DIO mice (C57BL/6) [5]; 96 hours post-injection): 104.6 mg/dL

Reference: patent US9938335B2, “Glucagon and GLP-1 co-agonist compounds” (Eli Lilly and Company, priority 2015, dated 2018)
